Laboratory results from patent US11246961B2, “Engineered scaffolds for vascularized tissue repair” (The Regents of the University of California, priority 2016, dated 2022).
Ends that are not written are not given here.

Tests used:
[1] = test system: THP-1 monocytes; assay: flow cytometry ligand-cell binding, THP-1 monocytes; conditions: biotinylated ligand 1 μM
Description: (§1) FIG. 10 presents flow cytometry data from an assay of binding affinity of LXW7 and GRGD (SEQ ID NO: 1) to different cell types. Tests included EPCs/ECs from different sources, including HECFCs (A), HCAECs (B), HMVECs (C), and THP-1 monocytes (D), Platelets (E), as well as K562 cells engineered to highly express αvβ3 (αvβ3-K562, F), and αIIbβ3 (αIIbβ3-K562, G). Cells were incubated with the LXW7-bio, GRGD-bio (SEQ ID NO: 1), or D-Biotin peptide and subsequently incubated with streptavidin-phycoerythrin. Flow cytometry analysis was performed to determine the binding affinity of the ligands. Samples treated with D-biotin were used as negative controls.
(§2) LXW7-bio (1 μM) was incubated with 3×10^5 HECFCs, HCAECs, HMVECs, αvβ3-K562 and αIIbβ3-K562 cells and THP-1 monocytes and 1×10^8 platelets in binding buffer (HEPES containing 10% FBS) on ice for 30 minutes. The samples were washed three times with DPBS containing 1% FBS and incubated with 2 μg/ml of streptavidin-phycoerythrin on ice for 30 minutes and then washed with DPBS. Samples were analyzed on a BD Fortessa LSR Cell Analyzer and further data analysis and gating were performed using FlowJo software (Treestar, Inc.).

[2] = test system: platelets; assay: flow cytometry ligand-cell binding, platelets; conditions: biotinylated ligand 1 μM
Description: as §1, §2

[3] = biological target: T1, integrin αvβ3 (Homo sapiens, UniProt P05106+P06756); assay: flow cytometry ligand-cell binding, αvβ3-K562 cells; conditions: K562 cells highly expressing integrin αvβ3
T1 construct: expressed in transfected cells; host or cells: K562 myeloid leukemia cells (αvβ3-K562), provided by Dr. Yoshikazu Takada
T1 sequence (P06756 31-889 limits assumed): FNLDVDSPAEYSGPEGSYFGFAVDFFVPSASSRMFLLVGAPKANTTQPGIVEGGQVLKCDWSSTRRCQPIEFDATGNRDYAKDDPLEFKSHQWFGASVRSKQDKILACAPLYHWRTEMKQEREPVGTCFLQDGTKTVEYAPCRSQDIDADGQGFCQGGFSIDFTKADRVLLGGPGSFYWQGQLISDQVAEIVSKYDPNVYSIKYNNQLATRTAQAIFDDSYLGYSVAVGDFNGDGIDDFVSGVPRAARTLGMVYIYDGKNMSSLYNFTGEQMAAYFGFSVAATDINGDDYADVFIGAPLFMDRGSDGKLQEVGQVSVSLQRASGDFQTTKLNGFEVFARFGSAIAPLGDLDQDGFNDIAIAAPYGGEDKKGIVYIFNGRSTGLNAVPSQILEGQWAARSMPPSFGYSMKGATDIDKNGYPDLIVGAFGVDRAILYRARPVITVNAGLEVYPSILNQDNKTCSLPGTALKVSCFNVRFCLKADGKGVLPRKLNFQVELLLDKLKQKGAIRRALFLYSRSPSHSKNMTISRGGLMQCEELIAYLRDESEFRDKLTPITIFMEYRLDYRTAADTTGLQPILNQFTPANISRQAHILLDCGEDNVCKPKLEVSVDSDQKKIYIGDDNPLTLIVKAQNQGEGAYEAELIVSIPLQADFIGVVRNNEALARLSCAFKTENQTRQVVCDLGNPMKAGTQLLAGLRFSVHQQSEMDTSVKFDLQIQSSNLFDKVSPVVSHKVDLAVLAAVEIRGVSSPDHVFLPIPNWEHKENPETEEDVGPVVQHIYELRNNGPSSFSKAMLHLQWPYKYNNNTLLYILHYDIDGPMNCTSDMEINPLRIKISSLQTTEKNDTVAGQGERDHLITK
T1 sequence (P06756 891-1048 partner limits assumed): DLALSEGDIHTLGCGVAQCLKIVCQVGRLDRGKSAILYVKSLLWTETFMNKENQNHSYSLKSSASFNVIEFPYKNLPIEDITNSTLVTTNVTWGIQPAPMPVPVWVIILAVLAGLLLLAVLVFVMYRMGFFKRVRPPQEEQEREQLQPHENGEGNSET
T1 sequence (P05106 27-788): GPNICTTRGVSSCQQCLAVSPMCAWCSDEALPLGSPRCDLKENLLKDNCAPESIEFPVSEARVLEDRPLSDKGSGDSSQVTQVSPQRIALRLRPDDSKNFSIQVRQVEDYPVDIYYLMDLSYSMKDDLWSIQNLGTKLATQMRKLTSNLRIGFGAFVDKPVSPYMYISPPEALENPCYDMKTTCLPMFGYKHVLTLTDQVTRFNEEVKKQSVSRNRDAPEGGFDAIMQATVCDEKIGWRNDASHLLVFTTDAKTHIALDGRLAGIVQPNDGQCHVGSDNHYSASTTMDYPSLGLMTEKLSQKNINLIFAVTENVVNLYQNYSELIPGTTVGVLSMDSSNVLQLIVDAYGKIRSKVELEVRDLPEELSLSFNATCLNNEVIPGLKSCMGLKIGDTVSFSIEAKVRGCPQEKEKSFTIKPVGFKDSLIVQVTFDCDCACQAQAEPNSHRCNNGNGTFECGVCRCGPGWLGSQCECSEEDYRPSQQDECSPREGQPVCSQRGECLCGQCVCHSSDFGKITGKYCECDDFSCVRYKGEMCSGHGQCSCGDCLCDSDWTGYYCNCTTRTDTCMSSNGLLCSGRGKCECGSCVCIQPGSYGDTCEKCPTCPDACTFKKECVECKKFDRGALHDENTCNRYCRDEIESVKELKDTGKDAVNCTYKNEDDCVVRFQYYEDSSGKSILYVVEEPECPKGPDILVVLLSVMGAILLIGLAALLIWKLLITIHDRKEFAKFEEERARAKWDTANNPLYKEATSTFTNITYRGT
Description: as §1
(§3) Human coronary artery endothelial cells (HCAECs) were purchased from ATCC. Human cardiac microvascular endothelial cells (HMVECs) were purchased from Lonza. THP-1 monocytes were obtained from Dr. Pamela Lein (University of California, Davis). […]
as §2, with “The samples were washed three times with DPBS containing 1% FBS and incubated with 2 μg/ml of streptavidin-phycoerythrin on ice for 30 minutes and then washed with DPBS.” left out

[4] = biological target: T2, integrin αIIbβ3 (Homo sapiens, UniProt P05106+P08514); assay: flow cytometry ligand-cell binding, αIIbβ3-K562 cells; conditions: K562 cells highly expressing αIIbβ3
T2 construct: expressed in transfected cells; host or cells: K562 myeloid leukemia cells (αIIbβ3-K562), provided by Dr. Jennifer Cochran (Stanford University)
Description: as §1, §3
as §2, with “The samples were washed three times with DPBS containing 1% FBS and incubated with 2 μg/ml of streptavidin-phycoerythrin on ice for 30 minutes and then washed with DPBS.” left out

[5] = test system: HCAECs; assay: attachment assay on ligand treated culture surfaces, HCAECs; assay type: cell-based, human; conditions: avidin + biotinylated ligand 2 μM; 10 minutes
From the text: Ligands LXW7, LXY30, and LLP2A were synthesized as in U.S. Pat. No. 9,073,974. Biotinylated LXW7 (LXW7-bio) and biotinylated GRGD (GRGD-bio) (SEQ ID NO: 1) were synthesized using established solid phase peptide synthesis protocols (Xiao et al. (2010) Mol Cancer Therapeutics 9:2714). Peptide-bio was designed to have biotin attached to the side chain of Lys, with two hydrophilic linkers between peptide and Lys (biotin). To modify culture surface with ligands, target culture wells in a 24-well plate were coated with 500 μL of 20 μg/mL Avidin (Thermo Fisher Scientific), and incubated for 1 hour at 37° C. Avidin coated wells were rinsed three times with DPBS and were treated with 500 μL molar equivalents (2 μM) of D-biotin (Thermo Fisher Scientific), LXW7-bio, or GRGD-bio (SEQ ID NO: 1). After 1 hour, the wells were washed three times with DPBS and blocked with 1% bovine serum albumin (BSA; Thermo Fisher Scientific) for 1 hour. After the wells were rinsed three times with DPBS, for cell attachment assay, 5×10^4 HCAECs and THP-1 monocytes suspended in the respective maintenance medium were added to the wells and incubated for 10 minutes or 16 hours at 37° C., 5% CO2, respectively. After each time point the wells were washed three times with DPBS, and the adhered cells were fixed in 10% formalin (Azer Scientific) for 20 minutes. For platelets attachment assay, the PRP was centrifuged, and the platelet pellet was resuspended in 1% BSA with 2 mM CaCl2 and 1 mM MgCl2 to achieve a final concentration of 1×10^8 platelets/mL, added to the wells at a density of 5×10^7 platelets/cm^2, and incubated for 16 hours at 37° C., 5% CO2. The wells were washed three times with DPBS, and the adhered cells were fixed in 10% formalin for 20 min. The HCAECs wells were washed with DPBS again and blocked for 1 hour with 1% BSA. An additional wash was performed, and the plate was incubated overnight with mouse anti-PECAM-1 antibody (1:100; Abcam) in 1% BSA at 4° C. […] Five images were randomly taken from each sample and quantification of images was performed using the Image J software (NIH).

[6] = test system: THP-1 monocytes; assay: attachment assay on ligand treated culture surfaces, THP-1 monocytes; assay type: cell-based; conditions: 16 hours
From the text: (§4) Ligands LXW7, LXY30, and LLP2A were synthesized as in U.S. Pat. No. 9,073,974. Biotinylated LXW7 (LXW7-bio) and biotinylated GRGD (GRGD-bio) (SEQ ID NO: 1) were synthesized using established solid phase peptide synthesis protocols (Xiao et al. (2010) Mol Cancer Therapeutics 9:2714). Peptide-bio was designed to have biotin attached to the side chain of Lys, with two hydrophilic linkers between peptide and Lys (biotin). To modify culture surface with ligands, target culture wells in a 24-well plate were coated with 500 μL of 20 μg/mL Avidin (Thermo Fisher Scientific), and incubated for 1 hour at 37° C. Avidin coated wells were rinsed three times with DPBS and were treated with 500 μL molar equivalents (2 μM) of D-biotin (Thermo Fisher Scientific), LXW7-bio, or GRGD-bio (SEQ ID NO: 1). After 1 hour, the wells were washed three times with DPBS and blocked with 1% bovine serum albumin (BSA; Thermo Fisher Scientific) for 1 hour. After the wells were rinsed three times with DPBS, for cell attachment assay, 5×10^4 HCAECs and THP-1 monocytes suspended in the respective maintenance medium were added to the wells and incubated for 10 minutes or 16 hours at 37° C., 5% CO2, respectively. […] Five images were randomly taken from each sample and quantification of images was performed using the Image J software (NIH).

[7] = test system: platelets; assay: platelets attachment assay on ligand treated culture surfaces; assay type: cell-based; conditions: 16 hours
From the text: as §4

[8] = test system: HECFCs; assay: on-bead whole cell binding assay, HECFCs; assay type: cell-based, human; conditions: 2 hours incubation
From the text: Endothelial colony forming cells (ECFCs), a subtype of EPCs also often referred to as outgrowth endothelial cells (OECs), were isolated from human umbilical cord blood as previously described (Williams et al. (2015) PloS One 10:e0123437; Ingram et al. (2004) Blood 104:2752). Human umbilical cord blood (10 U heparin/mL blood) was obtained from the UC Davis Umbilical Cord Blood Collection Program (UCBCP) and diluted 1:1 with Phosphate-buffered saline (PBS), without calcium and magnesium, pH 7.2 (Hyclone). Fifteen mL Ficoll-Paque PLUS (Amersham Biosciences) was laid at the bottom of 20 mL diluted blood and centrifuged at 2000 rpm for 30 minutes at room temperature. The hazy layer of mononuclear cells (MNCs) that seat at the interface between the Ficoll and serum was collected and dispensed into 50-mL conical tube containing 10 mL EBM-2 (Lonza) and centrifuged at 1500 rpm for 10 minutes at room temperature. The supernatant was carefully aspirated and the pellets were treated with red blood cell lysis buffer (eBioscience, Inc.) and then sorted by CD34 microbead magnetic sorting (Miltenyi Biotec GmbH) as per manufacturer's instructions. The CD34^+ cells were seeded on rat-tail collagen I (BD Biosciences Discovery) coated tissue culture plates and cultured in EGM-2 media (Lonza). After 24 h, non-adherent cells were removed and the media was changed daily to day 7 and every other day thereafter. ECFC-derived colonies appeared between day 4 and day 7 of culture with s typical endothelial cobblestone pattern. Individual colonies were isolated and expanded and allowed to grow to 80% to 90% confluency before first passage. ECFCs were used between P3 and P5 for all experiments.
HECFCs, HCAECs, HMVECs and THP-1 monocytes were cultured in their respective growth medium as described in Example 1. For cell bead-binding assay, 6×10^5 HECFCs, HCAECs, HMVECs or THP-1 monocytes in 2 mL of their respective culture medium were added to an ultra-low attachment 35-mm petri dish (Corning Incorporated) followed by resin beads (Lam et al. (1991) Nature 354:82). […]

[9] = test system: HCAECs; assay: on-bead whole cell binding assay, HCAECs; assay type: cell-based, human; conditions: 2 hours incubation
From the text: Human coronary artery endothelial cells (HCAECs) were purchased from ATCC. Human cardiac microvascular endothelial cells (HMVECs) were purchased from Lonza. THP-1 monocytes were obtained from Dr. Pamela Lein (University of California, Davis). The myeloid leukemia K562 cells that have been transfected with human integrin αvβ3 gene (αvβ3-K562 cells) were provided by Dr. Yoshikazu Takada and the K562 cells transfected with human integrin αIIbβ3 gene (αIIb3-K562 cells) were provided Dr. Jennifer Cochran (Stanford University)
HECFCs, HCAECs, HMVECs and THP-1 monocytes were cultured in their respective growth medium as described in Example 1. For cell bead-binding assay, 6×10^5 HECFCs, HCAECs, HMVECs or THP-1 monocytes in 2 mL of their respective culture medium were added to an ultra-low attachment 35-mm petri dish (Corning Incorporated) followed by resin beads (Lam et al. (1991) Nature 354:82). The dishes were incubated in a shaking incubator at 37° C., 5% CO2 for various time points at 40 rpm. For platelet bead-binding assay, the platelets isolated as described in Example 1 were added to an ultra-low attachment 35-mm petri dish and incubated with the resin beads in the shaking incubator as described for the cell-bead binding assy. Phase contrast images were taken at different time points using an Olympus IX81 microscope.
Three integrin-targeting ligands—LXY30 (α3β1), LLP2A (α4β1) and LXW7 (αvβ3)—were tested for their binding activities to EPCs and ECs. […] LXY30 only bound to ECs, not to EPCs. LLP2A only bound to EPCs, not to ECs. LXW7 bound well to both EPCs and ECs.

binding affinity to αvβ3-K562 cells by flow cytometry [3] | binding to αIIbβ3-K562 cells by flow cytometry [4] | Substance | binding to THP-1 monocytes by flow cytometry [1] | binding affinity with platelets by flow cytometry [2] | attachment of HCAECs on ligand treated surface [5] | THP-1 monocyte attachment on ligand treated surface [6] | platelet adhesion on ligand treated surface [7] | binding of HECFCs to ligand-displaying resin beads [8] | binding of HCAECs to ligand-displaying resin beads [9]
bound well | very strong binding | GRGD [reference compound] | did not bind to THP-1 monocytes | strong binding to platelets | bound to both LXW7 and GRGD | did not support THP-1 monocyte attachment | significantly higher number of platelets to attach |  | 
 |  | LXY30: integrin-targeting ligand (α3β1), synthesized as in U.S. Pat. No. 9,073,974 (CDGFGPNCR; not fully specified; also: cyclised, D-residues and non-natural residues, places not given here) [reference compound] |  |  |  |  |  | not to HECFCs or to THP-1 monocytes | bound only to HCAECs
